This is an account of results in patent US9371331B2, “Modulators of methyl modifying enzymes, compositions and uses thereof” (Constellation Pharmaceuticals, Inc., priority 2012, dated 2016).

Each structure is given as a SMILES string. Like-named read-outs stand apart in the source and are kept apart here.

One experiment addresses EZH2 (rPRC2) (Homo sapiens, UniProt Q15910). Briefly: EZH2 assay: rPRC2, biotinylated oligonucleosomes, 3H SAM methyl transfer (FlashPlate scintillation). Format: biochemical. The note with it: biotinylated oligonucleosome substrate.
For the next experiment, the target named is Y641N EZH2 (Homo sapiens, UniProt Q15910, Y641N). In words: Y641N EZH2 assay: as EZH2 assay, with reconstituted H3K27Me2 oligonucleosomes as substrate. In kind it is biochemical.
Y641N EZH2, sequence (Q15910 whole entry Y641N): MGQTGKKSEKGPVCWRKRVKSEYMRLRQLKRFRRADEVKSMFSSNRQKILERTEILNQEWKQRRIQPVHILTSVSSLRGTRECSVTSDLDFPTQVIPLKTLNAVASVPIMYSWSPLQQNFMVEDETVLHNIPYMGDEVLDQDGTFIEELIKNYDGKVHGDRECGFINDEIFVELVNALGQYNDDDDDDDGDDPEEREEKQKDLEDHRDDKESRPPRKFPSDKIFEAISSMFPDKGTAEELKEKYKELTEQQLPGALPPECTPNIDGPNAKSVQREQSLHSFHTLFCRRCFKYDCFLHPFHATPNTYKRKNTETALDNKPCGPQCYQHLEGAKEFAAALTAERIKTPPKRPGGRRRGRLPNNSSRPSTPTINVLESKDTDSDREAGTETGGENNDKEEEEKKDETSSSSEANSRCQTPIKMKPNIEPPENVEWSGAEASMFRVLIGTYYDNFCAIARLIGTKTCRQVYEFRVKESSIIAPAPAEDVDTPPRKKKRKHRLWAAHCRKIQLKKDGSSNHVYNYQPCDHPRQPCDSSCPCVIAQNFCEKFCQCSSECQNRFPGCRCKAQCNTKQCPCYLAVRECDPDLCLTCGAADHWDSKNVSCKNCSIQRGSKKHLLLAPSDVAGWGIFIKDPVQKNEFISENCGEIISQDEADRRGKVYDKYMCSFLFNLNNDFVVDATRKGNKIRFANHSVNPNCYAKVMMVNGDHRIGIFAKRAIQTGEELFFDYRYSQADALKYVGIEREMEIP
Y641N EZH2, sequence (O75530 whole entry partner): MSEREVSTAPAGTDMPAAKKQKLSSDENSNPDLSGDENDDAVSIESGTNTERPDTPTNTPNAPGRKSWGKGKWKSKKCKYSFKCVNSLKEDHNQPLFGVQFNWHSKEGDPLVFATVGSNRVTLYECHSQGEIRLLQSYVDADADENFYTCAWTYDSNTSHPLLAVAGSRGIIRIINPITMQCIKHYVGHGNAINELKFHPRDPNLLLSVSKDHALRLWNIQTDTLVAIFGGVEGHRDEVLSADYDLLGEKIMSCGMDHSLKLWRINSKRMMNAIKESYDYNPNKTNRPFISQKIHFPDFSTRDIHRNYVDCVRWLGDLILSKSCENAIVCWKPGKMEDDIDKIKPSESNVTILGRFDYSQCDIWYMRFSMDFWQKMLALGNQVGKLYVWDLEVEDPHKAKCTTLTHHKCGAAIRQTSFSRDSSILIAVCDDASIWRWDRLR
Y641N EZH2, sequence (Q15022 whole entry partner): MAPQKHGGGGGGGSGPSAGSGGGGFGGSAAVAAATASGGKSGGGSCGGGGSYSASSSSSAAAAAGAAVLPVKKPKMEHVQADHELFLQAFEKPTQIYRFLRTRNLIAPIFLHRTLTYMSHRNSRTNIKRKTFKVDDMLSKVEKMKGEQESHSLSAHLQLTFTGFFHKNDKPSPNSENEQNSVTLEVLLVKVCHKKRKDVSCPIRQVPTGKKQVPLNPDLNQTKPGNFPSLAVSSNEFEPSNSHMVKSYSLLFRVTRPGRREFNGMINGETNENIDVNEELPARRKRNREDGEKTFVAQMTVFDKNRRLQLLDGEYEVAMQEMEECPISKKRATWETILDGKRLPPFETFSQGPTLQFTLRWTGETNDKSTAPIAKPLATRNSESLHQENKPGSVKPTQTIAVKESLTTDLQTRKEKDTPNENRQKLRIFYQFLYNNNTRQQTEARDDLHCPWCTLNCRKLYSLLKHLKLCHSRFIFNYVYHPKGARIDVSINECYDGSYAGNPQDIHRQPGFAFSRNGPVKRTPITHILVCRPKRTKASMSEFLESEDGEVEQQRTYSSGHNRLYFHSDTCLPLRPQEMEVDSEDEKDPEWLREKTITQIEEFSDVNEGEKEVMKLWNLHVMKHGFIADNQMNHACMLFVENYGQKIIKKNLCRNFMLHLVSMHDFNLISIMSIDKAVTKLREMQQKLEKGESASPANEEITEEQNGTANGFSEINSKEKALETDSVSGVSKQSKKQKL
Experiment [1] concerns H3K27me3 mark in HeLa cells. In words: H3K27me3 Alpha Hela Assay (AlphaLISA). In kind it is cell-based. The following applies: 72 hrs; for EC50: Homo sapiens, read-out: H3K27me3_Alpha_HeLa_ (EC50). On the procedure:
H3K27me3 Alpha Hela Assay (AlphaLISA).
Ten different doses of each test compound (in a series of 3-fold dilutions) were plated in duplicate 384-well tissue culture treated plates (Catalog #781080; Greiner Bio One; Monroe, N.C.). Hela cells grown in culture were trypsinized and counted using a Countess® cell counter (Catalog #C10281; Life Technologies, Grand Island, N.Y.). Cell were diluted to 67,000 cells per mL in 10% DMEM (Catalog #10569-010 Life Technologies. Grand Island, N.Y.) and 15 μL (1,000 cells) were plated into each well using the Biotek MicroFlo™ Select Dispenser (BioTek Instruments. Inc. Vermont, USA),) of the 384-well plate. Plates were incubated at 37° C./5% CO2 for 72 hrs. One of the duplicate plates was processed for HeLa assay and the other for viability.
To the plate processed for AlphaLISA was added 5 μL per well Cell-Histone Lysis buffer (1×) (Catalog #AL009F1 Perkin Elmer; Waltham, Mass.) and the plate was incubated at RT for 30 minutes on a plate shaker with low speed (Model#4625-Q Thermo Scientific; Waltham, Mass.). Then, 10 µL per well Histone Extraction buffer (catalog #AL009F2: Perkin Elmer; Waltham, Mass.) was added and the plate further incubated at RT for 20 min on plate shaker with low speed. To each well was then added 10 μL per well of a 5× mix of anti-K27me3 acceptor beads plus Biotinylated anti-Histone H3 (C-ter) Antibody (diluted to 3 nM final) (Catalog #AL118 Perkin Elmer; Waltham, Mass.). Dilution of the acceptor beads and then anti-Histone H3 was with 1× Histone Detection buffer (Catalog #AL009F3 Perkin Elmer; Waltham, Mass.) which was produced diluted from the 10× stock provided. The plate was sealed with an aluminum plate sealer and incubated at 23° C. for 60 min. We then added 10 μL 5× solution of Streptavidin Donor beads (Catalog #6760002 Perkin Elmer; Waltham, Mass.) (20 μg/mL final in 1× Histone Detection Buffer), sealed the plate with Aluminum plate sealer and incubated at 23° C. for 30 min. The plates were then read using an EnVision-Alpha Reader (model #2104 Perkin Elmer: Waltham, Mass.).
Data from both assays was analyzed using Assay Assistant (Constellation Pharmaceuticals In-house product) and Activity Base (IDBS Ltd. Surrey, UK) template. Data files were imported to Assay Assistant and assay conditions were specified. A unique Analysis ID was created and the data files exported to Activity Base. An analysis template was created on Activity Base to measure dose-dependent inhibition of H3K27me3 mark and cell viability respectively. Readout of DMSO wells were used to normalize the data. Resulting curves were fitted using Activity base software Model 205 (IDBS Ltd, Surrey, UK). The data was checked for quality, validated and integrated in excel format using SARview (IDBS Ltd, Surrey, UK).

[2] abbreviates: EZH2 IC50, wild-type EZH2 (rPRC2).
Setting [3] is: Y641N EZH2 IC50, Y641N mutant EZH2, H3K27Me2 oligonucleosome substrate.

EZH2 (rPRC2), sequence (Q15910 whole entry): as the sequence (Q15910 whole entry Y641N) above, with N641Y counted along it
EZH2 (rPRC2), sequence (O75530 whole entry partner): as the sequence (O75530 whole entry partner) above
EZH2 (rPRC2), sequence (Q15022 whole entry partner): as the sequence (Q15022 whole entry partner) above

On to `COc1cc(C)[nH]c(=O)c1CNC(=O)c1c(C)n(C(C)c2ccnc(N3CCNCC3)c2)c2ccccc12` (racemic) [Compound 353, (±)-N-((4-methoxy-6-methyl-2-oxo-1,2-dihydropyridin-3-yl)methyl)-2-methyl-1-(1-(2-(piperazin-1-yl)pyridine-4-yl)ethyl)-1H-indole-3-carboxamide], for which the concentration for half-maximal inhibition (IC50) at EZH2 (rPRC2) (setting [2]) and against Y641N EZH2 (setting [3]) was less than 100 nM throughout. In experiment [1], the “H3K27me3_Alpha_HeLa_ (EC50)” value is “*(3.33 μM)”.
`COc1cc(C)[nH]c(=O)c1CNC(=O)c1c(C)n(C(C)C2CN(S(C)(=O)=O)C2)c2ccccc12` (racemic) [Compound 354, (±)-N-((4-methoxy-6-methyl-2-oxo-1,2-dihydropyridin-3-yl)methyl)-2-methyl-1-(1-(1-(methylsulfonyl)azetidin-3-yl)ethyl)-1H-indole-3-carboxamide]: the concentration for half-maximal inhibition (IC50) against EZH2 (rPRC2) (setting [2]) and against Y641N EZH2 (setting [3]) was less than 100 nM each time. Further, the EC50 in experiment [1] fell in the range of 400 to 2000 nM.
For the compound `Cc1cc(C)c(CNC(=O)c2c(C)n(C(C)C3CC3)c3ncccc23)c(=O)[nH]1` (single isomer, unassigned) [Compound 253, (R or S)-(±)-1-(1-cyclopropylethyl)-N-((4,6-dimethyl-2-oxo-1,2-dihydropyridin-3-yl)methyl)-2-methyl-1H-pyrrolo[2,3-b]pyridine-3-carboxamide], the IC50 on EZH2 (rPRC2) (read-out: EZH2 IC50, wild-type EZH2 (rPRC2)) is less than 100 nM; at Y641N EZH2 (read-out: Y641N EZH2 IC50, Y641N mutant EZH2, H3K27Me2 oligonucleosome substrate) it was 100 to 1000 nM. The half-maximal effective concentration (EC50) in experiment [1] was less than 400 nM.
Consider `COc1cc(C)[nH]c(=O)c1CNC(=O)c1c(C)n(C(C)C2CCOCC2)c2cc(Cl)ccc12` (single isomer, unassigned) [Compound 314, (R or S)-6-chloro-N-((4-methoxy-6-methyl-2-oxo-1,2-dihydropridin-3-1)methyl)-2-methyl-1-(1-(tetrahydro-2H-pyran-4-yl)ethyl)-1H-indole-3-carboxamide], for which the IC50 on EZH2 (rPRC2) (setting [2]) and on Y641N EZH2 (setting [3]) was less than 100 nM each time. Moreover, the EC50 in experiment [1] is less than 400 nM.
As for `Cc1cc(OC(F)F)c(CNC(=O)c2c(C)n(C(C)C3CCOCC3)c3ccccc23)c(=O)[nH]1` (single isomer, unassigned) [Compound 335, (R or S)-N-((4-(difluoromethoxy)-6-methyl-2-oxo-1,2-dihydropyridin-3-yl)methyl)-2-methyl-1-(1-(tetrahydro-2 H-pyran-4-yl)ethyl)-1 H-indole-3-carboxamide], the IC50 at EZH2 (rPRC2) (setting [2]) and against Y641N EZH2 (setting [3]) was less than 100 nM each time. For the same compound, the EC50 in experiment [1] was less than 400 nM.
Turning to `COc1cc(C)[nH]c(=O)c1CNC(=O)c1c(C)n(C(C)C2CCN(C)CC2)c2ccccc12` (single isomer, unassigned) [Compound 343, (R or S)-N-((4-methoxy-6-methyl-2-oxo-1,2-dihydropyridin-3-yl)methyl)-2-methyl-1-(1-(1-methylpiperidin-4-yl)ethyl)-1H-indole-3-carboxamide], the IC50 against EZH2 (rPRC2) (setting [2]) and against Y641N EZH2 (setting [3]) was less than 100 nM each time. The EC50 in experiment [1] lay in the range of 400 to 2000 nM.
For the compound `CCS(=O)(=O)C1(C(C)n2c(C)c(C(=O)NCc3c(OC)cc(C)[nH]c3=O)c3ccccc32)CCNCC1` (single isomer, unassigned) [Compound 345, (R or S)-1-(1-(4-(ethylsulfonyl)piperidin-4-yl)ethyl)-N-((4-methoxy-6-methyl-2-oxo-1,2-dihydropyridin-3-yl)methyl)-2-methyl-1 H-indole-3-carboxamide], the IC50 on EZH2 (rPRC2) (setting [2]) and at Y641N EZH2 (setting [3]) was less than 100 nM each time. In addition, the EC50 in experiment [1] was less than 400 nM.
In the case of `COc1cc(C)[nH]c(=O)c1CNC(=O)c1c(C)n(C(C)C2CCN(C(=O)OC(C)C)CC2)c2ccccc12` (single isomer, unassigned) [Compound 346, (R or S)-isopropyl 4-(1-(3-((4-methoxy-6-methyl-2-oxo-1,2-dihydropyridin-3-yl)methylcarbamoyl)-2-methyl-1H-indol-1-yl)ethyl)piperidine-1-carboxylate], the half-inhibitory concentration (IC50) at EZH2 (rPRC2) (setting [2]) and on Y641N EZH2 (setting [3]) was less than 100 nM throughout. The EC50 in experiment [1] was less than 400 nM.
For the compound `COc1cc(C)[nH]c(=O)c1CNC(=O)c1c(C)n(C(C)C2CCN(CCO)CC2)c2ccccc12` (single isomer, unassigned) [Compound 347, (R or S)-1-(1-(1-(2-hydroxyethyl)piperidin-4-yl)ethyl)-N-((4-methoxy-6-methyl-2-oxo-1,2-dihydropyridin-3-yl)methyl)-2-methyl-1H-indole-3-carboxamide], the IC50 at EZH2 (rPRC2) (setting [2]) and on Y641N EZH2 (setting [3]) was less than 100 nM throughout. Also, the EC50 in experiment [1] lay within 400 to 2000 nM.
Consider `COc1cc(C)[nH]c(=O)c1CNC(=O)c1c(C)n(C(C)C2CCN(CC(C)(C)O)CC2)c2ccccc12` (single isomer, unassigned) [Compound 352, (R or S)-1-(1-(1-(2-hydroxy-2-methylpropyl)piperidin-4-yl)ethyl)-N-((4-methoxy-6-methyl-2-oxo-1,2-dihydropyridin-3-yl)methyl)-2-methyl-1H-indole-3-carboxamide], for which the IC50 against EZH2 (rPRC2) (setting [2]) and against Y641N EZH2 (setting [3]) was less than 100 nM throughout. Moreover, the EC50 in experiment [1] is 400 to 2000 nM.
As for `COc1cc(C)[nH]c(=O)c1CNC(=O)c1c(C)n(C(C)C2CCC(S(=O)(=O)C(C)C)CC2)c2ccccc12` (single isomer, unassigned) [Compound 355, (R or S)-1-(1-(4-(isopropylsulfonyl)cyclohexyl)ethyl)-N-((4-methoxy-6-methyl-2-oxo-1,2-dihydropyridin-3-yl)methyl)-2-methyl-1 H-indole-3-carboxamide], the IC50 against EZH2 (rPRC2) (setting [2]) and on Y641N EZH2 (setting [3]) was less than 100 nM in each case. In addition, in experiment [1], the EC50 is less than 400 nM.
Consider `COc1cc(C)[nH]c(=O)c1CNC(=O)c1c(C)n(C(C)C2CCN(CCF)CC2)c2ccccc12` (single isomer, unassigned) [Compound 356, (R or S)-1-(1-(1-(2-fluoroethyl)piperidin-4-yl)ethyl)-N-((4-methoxy-6-methyl-2-oxo-1,2-dihydropyridin-3-yl)methyl-2-methyl-1H-indole-3-carboxamide], for which the IC50 against EZH2 (rPRC2) (setting [2]) and at Y641N EZH2 (setting [3]) was less than 100 nM throughout. The EC50 in experiment [1] is less than 400 nM.
With `COc1cc(C)[nH]c(=O)c1CNC(=O)c1c(C)n(C(C)C2CCN(C(=O)OCC(C)C)CC2)c2ccccc12` (single isomer, unassigned) [Compound 357, (R or S)-isobutyl 4-(1-(3-(((4-methoxy-6-methyl-2-oxo-1,2-dihydropyridin-3-yl)methyl)carbamoyl)-2-methyl-1 H-indol-1-yl)ethyl)piperidine-1-carboxylate], the IC50 against EZH2 (rPRC2) (setting [2]) and on Y641N EZH2 (setting [3]) was less than 100 nM in each case. For the same compound, in experiment [1], the concentration for a half-maximal effect (EC50) was less than 400 nM.
For the compound `COc1cc(C)[nH]c(=O)c1CNC(=O)c1c(C)n(C(C)C2CCN(C(C)C)CC2)c2ccccc12` (single isomer, unassigned) [Compound 358, (R or S)-1-(1-(1-isopropylpiperidin-4-yl)ethyl)-N-((4-methoxy-6-methyl-2-oxo-1,2-dihydropyridin-3-yl)methyl)-2-methyl-1H-indole-3-carboxamide], the IC50 against EZH2 (rPRC2) (setting [2]) and against Y641N EZH2 (setting [3]) was less than 100 nM throughout. In addition, the EC50 in experiment [1] fell in the range of 400 to 2000 nM.
Turning to `CCN1CCC(C(C)n2c(C)c(C(=O)NCc3c(OC)cc(C)[nH]c3=O)c3ccccc32)CC1` (single isomer, unassigned) [Compound 360, (R or S)-1-(1-(1-ethylpiperidin-4-yl)ethyl)-N-((4-methoxy-6-methyl-2-oxo-1,2-dihydropyridin-3-yl)methyl)-2-methyl-1 H-indole-3carboxamide], the IC50 at EZH2 (rPRC2) (setting [2]) and against Y641N EZH2 (setting [3]) was less than 100 nM in each case. Besides, the EC50 in experiment [1] fell in the range of 2000 to 10000 nM.
